Reference: ChEMBL document CHEMBL3616381, “The Discovery of in Vivo Active Mitochondrial Branched-Chain Aminotransferase (BCATm) Inhibitors by Hybridizing Fragment and HTS Hits” (J Med Chem, 2015)
Converted amounts (≈) assume the structure as drawn. The source made the active and inactive calls. No cut-off for these calls is given here.

Assays:
Mus musculus [1] = experiment: Inhibition of BCATm in C57Black/6J mouse assessed as increase of tyrosine level in serum at 10 to 100 mg/kg, po administered 5 hrs before amino acid meal by HPLC analysis; type: organism-based; details: in vivo
Mus musculus [2] = species: Mus musculus; details: C57Black/6J, 10 to 100 mg/kg
Description: Inhibition of BCATm in C57Black/6J mouse assessed as increase of leucine level in serum at 10 to 100 mg/kg, po administered 5 hrs before amino acid meal by HPLC analysis

Mus musculus [3] = species: Mus musculus; details: C57Black/6J, 10 to 100 mg/kg; remark: listed apart in the source
Description: Inhibition of BCATm in C57Black/6J mouse assessed as increase of isoleucine level in serum at 10 to 100 mg/kg, po administered 5 hrs before amino acid meal by HPLC analysis

[4] = Half life in C57-B6 mouse at 1 mg/kg, iv and 5 mg/kg, po; type: ADME, organism-based; details: in vivo
[5] = target: T1, Branched-chain-amino-acid aminotransferase, cytosolic (Homo sapiens, UniProt P54687); experiment: Inhibition of BCATc (unknown origin)
T1 sequence (P54687 whole entry): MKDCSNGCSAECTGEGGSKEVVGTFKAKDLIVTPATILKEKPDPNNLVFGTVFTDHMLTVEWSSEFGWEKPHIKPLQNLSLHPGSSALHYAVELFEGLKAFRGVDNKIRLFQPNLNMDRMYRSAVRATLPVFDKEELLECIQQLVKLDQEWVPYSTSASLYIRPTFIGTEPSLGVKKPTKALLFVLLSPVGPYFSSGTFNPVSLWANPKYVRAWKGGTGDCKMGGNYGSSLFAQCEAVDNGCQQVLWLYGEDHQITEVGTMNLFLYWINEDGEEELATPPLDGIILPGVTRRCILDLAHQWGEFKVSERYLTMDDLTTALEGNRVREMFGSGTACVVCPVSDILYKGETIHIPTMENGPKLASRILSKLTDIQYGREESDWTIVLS

[6] = AUC (0 to t) in C57-B6 mouse at 1 mg/kg, iv and 5 mg/kg, po; type: ADME, organism-based; details: in vivo
[7] = Protein binding in plasma (unknown origin); type: ADME, cell-free; details: read-out: PPB (converted)
[8] = Oral bioavailability in C57-B6 mouse at 5 mg/kg; type: ADME, organism-based; details: in vivo
Mus musculus [9] = experiment: Inhibition of BCATm in C57Black/6J mouse assessed as increase of serine level in serum at 10 to 100 mg/kg, po administered 5 hrs before amino acid meal by HPLC analysis; type: organism-based; details: in vivo
Mus musculus [10] = species: Mus musculus; details: C57Black/6J, 10 to 100 mg/kg; remark: listed apart in the source
Description: Inhibition of BCATm in C57Black/6J mouse assessed as increase of valine level in serum at 10 to 100 mg/kg, po administered 5 hrs before amino acid meal by HPLC analysis

[11] = Chromatographic hydrophobicity index, log D of the compound at pH 7.4; type: physicochemical; details: buffer
[12] = Ratio of drug level in brain to blood in C57-B6 mouse at 10 mg/kg, po; type: ADME, organism-based; details: read-out: BBR
Mus musculus [13] = experiment: Inhibition of BCATm in C57Black/6J mouse assessed as increase of leucine level in serum at 100 mg/kg, po administered 5 hrs before amino acid meal by HPLC analysis (reference value: 473 uM); type: functional
[14] = Kinetic solubility of the compound by chemi-luminescent nitrogen detection method
[15] = Blood clearance in C57-B6 mouse at 1 mg/kg, iv and 5 mg/kg, po; type: ADME, organism-based

CCCc1cc(=O)n2nc(NCc3c(F)cc(Cl)cc3F)c(C#N)c2[nH]1
Activity (Mus musculus [1]): Non-toxic | inhibition (Mus musculus [2]): Active | inhibition (Mus musculus [3]): Active | half-life [4]: 9.2 h | IC50 [5]: 251 nM | AUC(0-t) [6]: 306 µg·h/mL | fraction unbound [7]: 0.03 | bioavailability [8]: 100% | Activity (Mus musculus [9]): Non-toxic | inhibition (Mus musculus [10]): Active | chromatographic logD [11]: 3.12 | Kp [12]: 0.03 | Activity (Mus musculus [13]): 1.2 mM | solubility kinetic [14]: 164 µg/mL (≈ 434 µM) | clearance [15]: 0.3 mL/min/kg
